According to patent US20090239941A1, “AMINO ACID DERIVATIVES” (PROXIMAGEN LTD., priority 2006, published 2009):

System: 6-OHDA-lesioned rats
Experiment: Assessment of activity in 6-OHDA-lesioned rats (induction of rotational activity)
Format: in vivo, rat
Conditions: p.o., 63.4 μmole/kg, after benserazide 10 mg/kg; rotations over 4 hours; male Wistar rats

Compound: CC(C)CC(=O)Oc1ccc(C[C@H](N)C(N)=O)cc1OC(=O)CC(C)C.Cl [Example 5, (S)-2-[3,4-Bis-(3-methylbutyryloxy)-phenyl]-1-carbamoylethylammonium chloride]
- Duration of activity as % of that of L-Dopa: 71%
- Peak activity as % of that of L-Dopa: 118%
- Total activity (AUC activity, area under the locomotor-activity/time curve) as % of that of L-Dopa: 89%
